Earlier results, collected in US9156886B2, “Cyclosporin analogues for preventing or treating hepatitis C infection” (priority 2009, dated 2015).

Columns and labels:
hepatitis C virus = conditions: published results, Antiviral Research 65(3):A41 (2005)
cyclophilin A = cyclophilin A (Homo sapiens, UniProt P62937)
cyclophilin A, sequence (P62937 whole entry, species assumed): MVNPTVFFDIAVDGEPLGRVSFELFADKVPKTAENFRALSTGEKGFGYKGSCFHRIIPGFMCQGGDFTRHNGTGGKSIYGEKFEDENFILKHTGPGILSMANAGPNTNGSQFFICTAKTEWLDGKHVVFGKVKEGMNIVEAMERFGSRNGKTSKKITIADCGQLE

For C/C=C/C[C@@H](C)[C@@H](O)[C@H]1C(=O)N[C@@H](CC)C(=O)N(C)[C@H](C)C(=O)N(CC)[C@@H](C(C)C)C(=O)N[C@@H](C(C)C)C(=O)N(C)[C@@H](CC(C)C)C(=O)N[C@@H](C)C(=O)N[C@H](C)C(=O)N(C)[C@@H](CC(C)C)C(=O)N(C)[C@@H](CC(C)C)C(=O)N(C)[C@@H](C(C)C)C(=O)N1C [DEBIO-025], the “inhibition of hepatitis C virus replication” value (hepatitis C virus) is listed as “potent and selective inhibition” and the “binding affinity for cyclophilin A” value (cyclophilin A) is listed as “potent binding affinity”.
